Assay results from patent publication US20080096228A1, “Compositions And Methods Relating To Mammalian Internal Ribosome Entry Sites” (THE REGENTS OF THE UNIVERSITY OF CALIFORNIA, priority 2006, published 2008).
Several values for one entry are separate records, joined by “and”; a condition that tells them apart may be missing. Identical values can stand only once. Counter-ions that a name gives are not always drawn.

B1: LEF1 IRES: human LEF1 5'UTR (1.178 kb) internal ribosome entry site, SEQ ID NO:1, in dicistronic vector pRSTF-LEF(1.2) (nucleic acid, listed as Homo sapiens)
DNA: TCAGCGCCGGCGAGGCGCGGGAGGAGGAGAAGCAGTGGGGAGGCGCAGCCGCTCACCTGCGGGGCAGGGCGCGGAGGAGGGACCCGGGCTGCGCGCTCTCGGGCCGAGGAACCAGGACGCGCCCGGAGCCTCGCACGCGGCCAAGCTCGGGGCGTCCCCTCCCCTCGGCCGGGCGAACTCAAGGGGCGCAGCTCTTTGCTTTGACAGAGCTGGCCGGCGGAGGCGTGCAGAGCGGCGAGCCGGCGAGCCAGGCTGAGAAACTCGAGCCGGGAACAAAGAGGGGTCGGACTGAGTGTGTGTGTCGGCTCGAGCTCCGGGCAGAGGCATTTGGGCCCGAGGCCCCCGCTGTGACTCCCCGAGACTCCGCAGTGCCCTCCACTGCGGAGTCCCCGCGCTTGCCGGCAAAAACTTTATTCTTGGCAAACTTCTCTTTCTCTTCCCCTCCTCCTCGGCCCCCATCTTCTGCTCCTCCTCCTTCTCTAGCAGATTAAATGAGCCTCGAGAAGAAAAACCGAAGCGAAAGGGAAGAAAATAAGAAGATCTAAAACGGACATCTCCAGCGTGGGTGGCTCCTTTTTCTTTTTCTTTTTTTCCCACCCTTCAGGAAGTGGACGTTTCGTTATCTTCTGATCCTTGCACCTTCTTTTGGGGCAAACGGGGCCCTTCTGCCCAGATCCCCTCTCTTTTCTCGGAAAACAAACTACTAAGTCGGCATCCGGGGTAACTACAGTGGAGAGGGTTTCCGCGGAGACGCGCCGCCGGACCCTCCTCTGCACTTTGGGGAGGCGTGCTCCCTCCAGAACCGGCGTTCTCCGCGCGCAAATCCCGGCGACGCGGGGTCGCGGGGTGGCCGCCGGGGCAGCCTCGTCTAGCGCGCGCCGCGCAGACGCCCCCGGAGTCGCCAGCTACCGCAGCCCTCGCCGCCCAGTGCCCTTCGGCCTCGGGGGCGGGCGCCTGCGTCGGTCTCCGCGAAGCGGGAAAGCGCGGCGGCCGCCGGGATTCGGGCGCCGCGGCAGCTGCTCCGGCTGCCGGCCGGCGGCCCCGCGCTCGCCCGCCCCGCTTCCGCCCGCTGTCCTGCTGCACGAACCCTTCCAACTCTCCTTTCCTCCCCCACCCTTGAGTTACCCCTCTGTCTTTCCTGCTGTTGCGCGGGTGCTCCCACAGCGGAGCGGAGATTACAGAGCCGCCGGGATGCCCCAACTCTCCGGAGGAGGTGGCGGCGGCGGGGGGGACCCGGAACTCTGCGCCACGGACGAGATGA
modifications: (298)..(1095) IRES Sequence; (298)..(656) IRES Module 1; (656)..(1095) IRES Module 2

What was measured:
[1] = test system: LEF-1 protein expression in K562 cells; assay: LEF-1 protein expression in K562 cells, Western blot; type: cell-based; details: imatinib 2 uM, rapamycin 10 ng/mL or both, 24 hours
LEF1 mRNA = assay: Northern blot of LEF1 mRNA in K562 cells; type: cell-based; details: 2 μM imatinib, 24 hours; for decrease of LEF1 mRNA levels (3.6 kb and 3.0 kb mRNAs): rapamycin 10 ng/mL or both, not normalized
Description: Total RNA was isolated from K562 cells using TriZol reagent (Invitrogen) according to the manufacturer's instructions. […] Approximately 20 μg of total RNA from K562 cells was analyzed on a Northern blot for LEF1 expression, respectively. Northern blotting was carried out as described elsewhere and the LEF1 ORF (open reading frame) probe was generated as described elsewhere and radiolabeled with ^32P-dATP. The blot was stripped and rehybridized with a ^32P-dATP radioloabeled GAPDH loading control probe.
Panel B: Northern blot analysis of total RNA isolated from K562 cells treated with inhibitors as described above. The three LEF1 mRNAs are indicated by arrows. A radiolabeled LEF-1 ORF cDNA probe was used to detect LEF1 mRNAs in the top panel. The blot was stripped and reprobed with GAPDH.

GAPDH mRNA = assay: Northern blot of GAPDH mRNA (loading control) in K562 cells; type: cell-based; details: 2 μM imatinib, 24 hours
LEF-1 IRES [2] = assay: Dicistronic DNA transfection dual luciferase assay, LEF-1 IRES, K562 cells; type: cell-based; details: 2 μM imatinib, 24 hour treatment
[3] = test system: cap-dependent translation (RLuc); assay: Dicistronic DNA transfection, RLuc cap-dependent translation, K562 cells; type: cell-based; details: 2 μM imatinib
[4] = test system: cap-dependent translation (RLuc); assay: Capped dicistronic RNA transfection, RLuc cap-dependent translation, K562 cells; type: cell-based; details: 2 μM imatinib, 24 hours
Description: (§1) The capped dicistronic mRNAs were generated by in vitro transcription of the dicistronic (linearized with PMEI) plasmid using the T7-based Megascript in vitro transcription kit (Ambion) as per the manufacturer's protocol. The integrity of the transcripts was analyzed on a 1% agarose gel.
(§2) Approximately 6×10^5 cells (K562) were seeded in 6-well plates and 2 μg of in vitro synthesized dicistronic mRNA was transfected per well using the Transmessenger transfection kit (Qiagen). A ratio of 1:6 (1 μg of RNA: 6 μL of transmessenger reagent) was used according to the manufacturer's instructions. […] Cell lysates were then assayed for luciferase activities as described above. All transfections were performed in duplicate and carried out 3 times.
(§3) To determine whether Bcr-Abl regulation is compartmentalized and further examine whether it functions post-transcriptionally, an RNA transient transfection was carried out in K562 cells. […] In these experiments the inventors again utilized CVB3 as a control for regulation in subcellular compartments since it predominantly depends on cytoplasmic machinery for translation.

LEF-1 IRES [5] = assay: Capped dicistronic RNA transfection, LEF-1 IRES firefly luciferase, K562 cells; type: cell-based; details: 2 μM imatinib, 24 hours, p<0.001
Description: as §1, §2, §3

CVB3 IRES [6] = assay: Capped dicistronic RNA transfection, CVB3 IRES firefly luciferase, K562 cells; type: cell-based; details: 2 μM imatinib, 24 hours
Description: as §1, §2, §3

[7] = test system: LEF-1 protein expression in primary CML cells; assay: LEF-1 protein expression in primary CML cells, Western blot; type: cell-based, human; details: rapamycin 10 ng/mL, 24 hours
Description: PB mononuclear cells (MNCs) were obtained by centrifugation through Ficoll-Hypaque, washed in PBS, and cryopreserved. To expand CML cells in vitro, cells were thawed and grown in media supplemented with 10% FBS and a growth factor cocktail consisting of 20 ng/ml granulocyte-macrophage colony stimulating factor, 20 ng/ml recombinant human interleukin 3, 20 ng/ml recombinant human stem cell factor, and 100 ng/ml granulocyte colony-stimulating factor. Following this, cells were incubated in liquid culture for 72-96 hrs, at 37° C. in a humidified atmosphere with 5% CO2 in serum-free medium (SFM) (StemCell Technologies, Vancouver, BC, Canada) supplemented with growth factors (GF) at concentrations similar to that found in stroma-conditioned medium. All cytokines were from PeproTech, Rocky Hills, N.J., except for GM-CSF (sargramostim, Immunex, Seattle, Wash.) and G-CSF (filgrastim, Amgen, Thousand Oaks, Calif.).

LEF1 IRES = assay: Dicistronic DNA transfection dual luciferase assay, LEF1 IRES, Ba/F3-Bcr-Abl-WT cells; type: cell-based, murine
Description: (§4) For transfection of the dicistronic plasmids into Ba/F3 cells, approximately 10×10^6 cells were seeded in […] and 10 μg of the reporter plasmid was transfected via a BTX 600 electroporator. […] Cell lysates were prepared for dual luciferase assays 8 hours post-transfection. […] Cell lysates were prepared for dual luciferase assays 24 hours post-transfection. Transfections were performed in duplicate and each experiment was carried out at least 3 times.
(§5) Cell lysates were assayed for luciferase activities using the Dual Luciferase Reporter Assay System (Promega) according to the manufacturer's protocol. Assays were performed using a SIRIUS luminometer (Berthold Detection Systems). FLuc:RLuc ratios were calculated for each sample, and the average value is represented as fold elevation over background, which is the Firefly luciferase: Renilla luciferase ratio (FLuc:RLuc) measured from the vector in the absence of an insert. […]
(§6) The dicistronic vector depicted in FIG. 4A contains 2 cistrons separated by an intercistronic region that also contains a hairpin structure. […] A dicistronic construct that contains the full length 1.2 kb LEF1 5′UTR and IRES, the empty vector with no insert (pRSTF), and the viral IRES of the well characterized coxsackievirus B3 (CVB3) were analyzed for comparison. […]

CVB3 IRES [8] = assay: Dicistronic DNA transfection dual luciferase assay, CVB3 IRES, Ba/F3-Bcr-Abl-WT cells; type: cell-based, murine; details: 10 ng/mL rapamycin, 6 hours
Description: as §4, §5, §6

[9] = test system: cap-dependent translation (RLuc); assay: Dicistronic DNA transfection, RLuc cap-dependent translation, Ba/F3-Bcr-Abl-WT cells; type: cell-based, murine; details: inhibitors for 6 hours
Description: as §4
Cell lysates were assayed for luciferase activities using the Dual Luciferase Reporter Assay System (Promega) according to the manufacturer's protocol. Assays were performed using a SIRIUS luminometer (Berthold Detection Systems). FLuc:RLuc ratios were calculated for each sample, and the average value is represented as fold elevation over background, which is the Firefly luciferase: Renilla luciferase ratio (FLuc:RLuc) measured from the vector in the absence of an insert.
as §6

Molecule	LEF-1 protein levels [1]	decrease of LEF1 mRNA after normalizing with GAPDH mRNA levels (LEF1 mRNA)	decrease of LEF1 mRNA levels (3.6 kb and 3.0 kb mRNAs) (LEF1 mRNA)	reduction of GAPDH mRNA levels (GAPDH mRNA)	decrease in LEF-1 IRES activity (LEF-1 IRES [2])	decrease in LEF-1 IRES activity (LEF-1 IRES [2]; listed as Imatinib)	reduction of RLuc translation, average [3]	inhibition of RLuc translation, average [4]	reduction of LEF-1 IRES activity in the cytoplasm (LEF-1 IRES [5])	effect on CVB3 IRES activity (CVB3 IRES [6])	LEF-1 protein levels [7]	decrease in LEF-1 IRES activity (FLuc:RLuc) (LEF1 IRES; 10 ng/mL rapamycin, 6 hours)	decrease in CVB3 IRES activity (FLuc:RLuc) (CVB3 IRES [8])	decrease in RLuc activity (cap-dependent translation), average [9]	elevation in the FLuc:RLuc ratio over empty vector (LEF1 IRES; 8 hours post-transfection, no inhibitor)
Cc1ccc(NC(=O)c2ccc(CN3CCN(C)CC3)cc2)cc1Nc1nccc(-c2cccnc2)n1 [imatinib, imatinib mesylate]	significantly down-regulated	2 fold	3 fold	1.4 fold	2.3 fold	3-4 fold and 3 fold	2.6 fold	3.4 fold	45%	insensitive					
CO[C@H]1C[C@@H]2CC[C@@H](C)[C@@](O)(O2)C(=O)C(=O)N2CCCC[C@H]2C(=O)O[C@H]([C@H](C)C[C@@H]2CC[C@@H](O)[C@H](OC)C2)CC(=O)[C@H](C)/C=C(\C)[C@@H](O)[C@@H](OC)C(=O)[C@H](C)C[C@H](C)/C=C/C=C/C=C/1C [rapamycin]	no effect		~2 fold								no effect	38%	33%	2 fold	
B1															55 fold
